# Experimental data reported in article PMC8704315, “Lichen-Derived Compounds and Extracts as Biologically Active Substances with Anticancer and Neuroprotective Properties” (Pharmaceuticals, 2021).
# Values joined by “and” are separate entries in the source; they are usually repeats but may differ in a detail not shown here. Identical values can stand only once. “Also recorded” adds a separate entry of the source. Like-named read-outs stand apart in the source and are kept apart here.
# Legend:
# [1] = target: T1, indoleamine 2,3-dioxygenases 1 (IDO1) (Homo sapiens, UniProt P14902); experiment: Universal IDO1/IDO2/TDO Inhibitor Screening Assay Kit, IDO1; assay type: biochemical; conditions: ± SEM, three measurements
# T1 construct: purchased BPS Bioscience, Inc. (San Diego, CA, USA)
# T1 sequence (P14902 whole entry, species assumed): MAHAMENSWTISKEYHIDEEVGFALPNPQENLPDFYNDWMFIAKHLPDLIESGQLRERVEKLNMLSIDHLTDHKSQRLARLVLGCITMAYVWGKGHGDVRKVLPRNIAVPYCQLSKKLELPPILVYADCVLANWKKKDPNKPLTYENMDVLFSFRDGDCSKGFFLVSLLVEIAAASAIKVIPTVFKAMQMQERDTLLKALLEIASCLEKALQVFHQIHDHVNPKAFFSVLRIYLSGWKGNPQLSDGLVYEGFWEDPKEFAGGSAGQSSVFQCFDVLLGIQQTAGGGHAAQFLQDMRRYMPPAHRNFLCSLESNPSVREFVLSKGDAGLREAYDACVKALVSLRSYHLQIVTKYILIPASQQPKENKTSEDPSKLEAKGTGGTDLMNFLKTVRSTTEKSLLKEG
# [2] = target: T2, glutathione reductase (GR) (Saccharomyces cerevisiae, UniProt P41921); experiment: Effect on glutathione reductase activity; assay type: biochemical; conditions: 444.4 μg/mL in the reaction mixture; for GR Inhibition under Reaction Conditions (%): key: -: not active
# T2 construct: purchased Sigma Aldrich G3664
# T2 sequence (P41921 17-483): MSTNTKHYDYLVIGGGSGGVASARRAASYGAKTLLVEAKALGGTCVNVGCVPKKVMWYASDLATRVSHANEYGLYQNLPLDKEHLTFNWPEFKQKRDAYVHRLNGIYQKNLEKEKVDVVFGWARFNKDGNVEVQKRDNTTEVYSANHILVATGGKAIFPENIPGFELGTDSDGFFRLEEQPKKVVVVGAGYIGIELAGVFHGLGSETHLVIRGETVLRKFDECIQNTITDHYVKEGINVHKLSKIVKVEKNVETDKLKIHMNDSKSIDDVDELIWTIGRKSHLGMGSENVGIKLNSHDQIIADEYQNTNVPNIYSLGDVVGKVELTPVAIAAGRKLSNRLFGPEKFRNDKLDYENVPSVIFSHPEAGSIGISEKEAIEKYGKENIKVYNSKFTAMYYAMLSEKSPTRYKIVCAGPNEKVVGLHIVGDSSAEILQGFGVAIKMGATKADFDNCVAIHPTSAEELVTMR
# Protocol: Sample (20 µL, 5 mg/mL of pure DMSO) was mixed with 10 μL of EDTA solution and 12 μL of GSSG solution and incubated for 5 min at 25 °C; 4 μL of NADPH solution and was then added (all reagents were dissolved in […] sodium phosphate buffer, pH 7.6), and the initial absorbance (340 nm) was recorded. The reaction was then started by addition of 2 U glutathione reductase (2 μL, Sigma Aldrich no G3664), 177 μL of […] sodium phosphate buffer, and the absorbance was recorded after 5 min of incubation at 25 °C. Concentrations of reagents in the final mixture ([…]) were as follows: 0.5 mM EDTA, 10 mM GSSG and 10 mM NADPH. Blank sample was prepared with buffer instead of the sample and background was measured (mixture containing studied sample and buffer only). One unit of enzyme activity has been defined as nMol of NADPH consumed/min·mL sample, in comparison with nMol of NADPH consumed/min in blank (reagent) sample [75].
# A-172 cell line = experiment: MTT cell viability assay, 48 h, A-172; assay type: cell-based, Human; conditions: for IC50: Homo sapiens, read-out: IC50 A-172
# AChE = AChE (Homo sapiens, UniProt P22303); assay type: biochemical; conditions: sample 142.9 μg/mL in the reaction mixture; note: key: -: not active
# Chain of AChE (P22303 32-614): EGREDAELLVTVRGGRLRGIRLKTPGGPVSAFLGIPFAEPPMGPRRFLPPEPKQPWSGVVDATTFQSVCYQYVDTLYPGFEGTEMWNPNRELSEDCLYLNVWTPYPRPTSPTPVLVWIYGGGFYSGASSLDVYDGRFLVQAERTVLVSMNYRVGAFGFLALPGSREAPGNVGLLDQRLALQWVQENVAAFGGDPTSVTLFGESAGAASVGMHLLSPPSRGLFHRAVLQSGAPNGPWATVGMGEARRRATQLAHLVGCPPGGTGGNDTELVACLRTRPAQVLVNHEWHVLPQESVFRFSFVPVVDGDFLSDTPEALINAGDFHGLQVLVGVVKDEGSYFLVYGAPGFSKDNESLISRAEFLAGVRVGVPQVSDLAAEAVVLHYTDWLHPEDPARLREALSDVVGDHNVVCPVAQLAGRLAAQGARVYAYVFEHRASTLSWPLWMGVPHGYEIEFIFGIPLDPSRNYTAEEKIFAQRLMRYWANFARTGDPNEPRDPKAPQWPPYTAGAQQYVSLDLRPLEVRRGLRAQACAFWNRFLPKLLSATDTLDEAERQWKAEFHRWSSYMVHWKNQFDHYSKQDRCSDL
# Protocol: Ellman’s colorimetric method was used with modifications described previously. Tested sample (10 μL) at concentration 5 mg/mL was mixed with 20 μL of AChE (or BChE) solution (0.28 U/mL) and completed after 5 min with 35 μL of ATChI (or BTCh) (1.5 mmol/L), 175 μL of 0.3 mmol/L DTNB (containing 10 mmol/L NaCl and 2 mmol/L MgCl2) and 110 μL with Tris-HCl buffer (50 mmol/L, pH 8.0). Samples containing 10 μL of Tris-HCl buffer instead of the studied sample were run in the same way (“blank” samples). The increase in the absorbance due to the spontaneous hydrolysis of the substrate was monitored using “blank” samples containing ATCh (or BTCh) and DTNB completed to 350 μL with Tris-HCl buffer. All samples were incubated at 22 °C (30 min; incubation time was determined after optimization experiments, details not shown), and the absorbance was measured (405 nm, 96-well microplate reader, Tecan Sunrise, Grödig, Austria). The “false-positive” effect of studied compounds was measured according to Rhee et al. with minor modifications, as described previously: after mixing of the substrate with the enzyme and buffer, the “false-positive” sample was left for incubation. Then, a studied sample and DTNB were added, followed by an immediate measurement of the absorbance.
# Reference cholinesterase inhibitors were used for the calculations of results (eserine, neostigmine, magniflorine, rivastigmine and donepezil). For this purpose, for each compound, 16 dilutions in pure DMSO were prepared (2.57–41.14 μg/mL). These solutions (10 μL) were tested as described above and calibration curves were produced.
# Each sample was analyzed in at least eight repeats, and all solutions used in a set of analyses were prepared in the same buffer. For calculations, the background of the sample (10 μL mixed with 340 μL of Tris buffer) was measured at 405 nm and subtracted during calculations. Then, the absorbance of the test sample was subtracted from the absorbance of the “blank” sample.
# PAMPA-BBB permeability = assay type: in vitro ADME
# Description: To evaluate the effective permeability (Pe) of the salazinic acid, evernic acid, (−)-usnic acid as pure compounds and from the extracts (P. sulcata acetone extract, E. prunastri acetone extract, C. uncialis acetone extract, respectively), Parallel Artificial Membrane Permeability Assay (PAMPA) for the Blood-Brain Barrier (BBB) was used (Pion Inc., Billerica, MA, USA). The stock solutions of acetone extracts from C. uncialis, E. prunastri and P. sulcata and from (−)-usnic acid, evernic acid, salazinic acid, were prepared with DMSO (the concentrations of salazinic acid, evernic acid, and (−)-usnic acid reached were 2.5 mg/mL for pure compounds and extracts). Next, the donor solution was prepared (5 µL of stock solution/1000 µL of Prisma buffer, pH = 7.4 (Prisma HT, Pion Inc.). Subsequently, each filter membrane of the acceptor plate wells was coated with 5 μL BBB-1 lipid solution (Pion Inc.), and 180 µL of the donor solution was added to the donor wells. The acceptor well was filled with 200 µL BSB (Brain Sink Buffer, Pion Inc.). The plate was incubated for 1 h or 4 h at 37 °C. After incubation, the donor and acceptor concentrations of examined substances were determined using the HPLC. Effective permeability (Pe) of the compounds was calculated by using the following equation. (4) Pe=−ln(1−CA/Ceq)/S×(1/VD+1/VA)×t where Pe is the effective permeability coefficient (cm/s), VD = donor volume, VA = acceptor volume, Ceq = equilibrium concentration and Ceq=CD×VD+CA×VA/VD+VA , S = membrane area, and t = incubation time (in seconds).
# Compounds with Pe (× 10^−6 cm/s) > 1.5 are classified as high permeation predicted, while Pe (× 10^−6 cm/s) < 1.5 are classified as low permeation predicted. Samples were analyzed in triplicate and the average is reported.
# [3] = DPPH radical scavenging assay; conditions: highest concentration 750.0 µg/mL for substances, 2500.0 µg/mL for extracts; ± SEM, n = 3
# [4] = target: T3, tryptophan 2,3-dioxygenase (TDO) (Homo sapiens, UniProt P48775); experiment: Universal IDO1/IDO2/TDO Inhibitor Screening Assay Kit, TDO; assay type: biochemical; conditions: for inhibition at 100 µg/mL: read-out: Inhibition (%) TDO
# T3 construct: purchased BPS Bioscience, Inc. (San Diego, CA, USA)
# T3 sequence (P48775 whole entry, species assumed): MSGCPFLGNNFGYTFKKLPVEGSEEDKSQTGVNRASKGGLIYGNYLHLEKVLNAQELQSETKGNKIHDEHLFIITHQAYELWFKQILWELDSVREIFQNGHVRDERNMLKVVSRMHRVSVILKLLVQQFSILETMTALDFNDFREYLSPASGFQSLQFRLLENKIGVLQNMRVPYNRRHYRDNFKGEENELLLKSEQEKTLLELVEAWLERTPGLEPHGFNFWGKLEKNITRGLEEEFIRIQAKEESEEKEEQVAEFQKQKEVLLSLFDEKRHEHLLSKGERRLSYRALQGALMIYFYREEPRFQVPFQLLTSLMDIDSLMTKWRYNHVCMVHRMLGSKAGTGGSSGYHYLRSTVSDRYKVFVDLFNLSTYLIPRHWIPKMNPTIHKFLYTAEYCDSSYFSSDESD
# Protocol: This colorimetric assay is based on the measurement of the ability of IDO1, IDO2 and TDO to convert L-tryptophan into N-formylkynurenine (NFK). The experiments were performed according to the manufacturer’s guidelines. The final concentration of the compounds and extracts in the reaction mixture was 100 µg/mL. The amount of NFK was measured spectrophotometrically at 320 nm using an Epoch BioTek microplate reader (BioTek Instruments, Inc., Winooski, VT, USA). The samples were run in triplicate and the results were expressed as mean ± SEM.
# [5] = 100 µg/mL, read-out: Inhibition (%) IDO1
# [6] = A 172, 48 h treatment, MTT, ± SEM
# [7] = pH 7.4, Pe (effective permeability, PAMPA-BBB)
SMILES,Inhibition (%) IDO1 ([1]; 100 µg/mL),"inhibition at 100 µg/mL [1, 5] [%]",GR Inhibition under Reaction Conditions (%) [2],IC50 (A-172 cell line; [6]),"Equivalent Reference Concentration, Donepezil, AChE (AChE)","Equivalent Reference Concentration, Eserine, AChE (AChE)","Equivalent Reference Concentration, Magniflorine, AChE (AChE)","Equivalent Reference Concentration, Neostygmine, AChE (AChE)","Equivalent Reference Concentration, Rivastigmine, AChE (AChE)",Papp at 12.5 µg/mL (PAMPA-BBB permeability; [7]) [×10⁻⁶ cm/s],DPPH IC50 [3] [µg/mL],inhibition at 100 µg/mL ([4]; 100 µg/mL) [%],further results
"Cc1cc(O)c(C=O)c2c1C(=O)Oc1c(CO)c(O)c3c(c1O2)C(O)OC3=O (stereo not drawn) [Salazinic acid, salazinic acid]",did not exhibit any inhibition effect; also recorded: not active,< 10,-,> 38.8 µg/mL and > 100 µM,-,-,-,-,-,< 0.5,>750.0,< 10,Inhibition (%) TDO ([4]; 100 µg/mL): did not exhibit any inhibition effect
"CC(=O)C1=C(O)C=C2Oc3c(C(C)=O)c(O)c(C)c(O)c3C2(C)C1=O (single isomer, unassigned; (-)) [(−)-Usnic acid, (−)-usnic acid]",21.6 ± 0.9%,,,,-,-,-,-,-,,>750.0,,"inhibition at 100 µg/mL ([1]; read-out: Inhibition (%) IDO1, 100 µg/mL): 21.6 ± 0.85%; GR Inhibitory Activity (nMol Depleted NADPH/min Incubation) [2]: 710.2 ± 42.3 nMol Depleted NADPH/min Incubation; inhibition at 444.4 µg/mL ([2]; read-out: GR Inhibition under Reaction Conditions (%)): 18.2 ± 2.2%; IC50 (A-172 cell line; A 172, 48 h): 31.5 µg/mL and 91.4 µM; Papp at 1 h, 12.5 µg/mL (PAMPA-BBB permeability; pH 7.4, compound permeated from the acetone extract, 1 h, 37 °C, pH 7.4, ± SEM, n = 3, read-out: Pe × 10^−6 (cm/s) t = 1 h): 140 ± 7.3 ×10⁻⁶ cm/s; Papp at 12.5 µg/mL (PAMPA-BBB permeability; pH 7.4, from the extract or as a pure compound, bound stated, read-out: Pe (effective permeability, PAMPA-BBB)): > 1.5 ×10⁻⁶ cm/s; Papp at 1 h, 12.5 µg/mL (PAMPA-BBB permeability; pH 7.4, pure compound (PC), 1 h, 37 °C, pH 7.4, ± SEM, n = 3, read-out: Pe × 10^−6 (cm/s) t = 1 h): 92.8 ± 6.3 ×10⁻⁶ cm/s; inhibition at 100 µg/mL [4]: < 10%"
"COc1cc(C)c(C(=O)Oc2cc(C)c(C(=O)O)c(O)c2)c(O)c1 [Evernic acid, evernic acid]",32.8 ± 1.9%,32.8 ± 1.93,-,> 33.2 µg/mL and > 100 µM,-,-,-,-,-,> 1.5,>750.0,< 10,"cell viability A-172 (A-172 cell line; 10–100 µM, compared to vehicle-treated control): ~ 80%; Pe × 10^−6 (cm/s) t = 1 h (PAMPA-BBB permeability; 1 h, 12.5 µg/mL, pH 7.4): 5.0 ± 0.7 × 10^−6 cm/s; Pe × 10^−6 (cm/s) t = 4 h (PAMPA-BBB permeability; 4 h, 12.5 µg/mL, pH 7.4): 7.2 ± 0.4 × 10^−6 cm/s; Papp at 1 h, 12.5 µg/mL (PAMPA-BBB permeability; pH 7.4, Pe × 10^−6 (cm/s) t = 1 h): 5.2 ± 0.8 ×10⁻⁶ cm/s; Papp at 4 h, 12.5 µg/mL (PAMPA-BBB permeability; pH 7.4, Pe × 10^−6 (cm/s) t = 4 h): 8.6 ± 0.4 ×10⁻⁶ cm/s"
